Patent US20200061092A1, “METHODS AND COMPOSITIONS FOR TREATING DISORDERS ASSOCIATED WITH MUSCLE WEAKNESS” (priority 2018, published 2020)

How the values were obtained:
[1] = system: ribitol, ribitol-5P and CDP-ribitol levels in heart and quadriceps; test: LC/MS-MS quantification of ribitol, ribitol-5P and CDP-ribitol in muscle tissues of P448L mice; type: in vivo, mouse; conditions: 5% ribitol 1 month
Method: Ribitol was purchased from Sigma (A5502 Adonitol, ≥98%, Sigma, St. Louis) and dissolved in drinking water to the final concentration of 5% or 10%. […] mice aged at 4 weeks were treated with 5% ribitol drinking water for 1 month and […] mice aged at 7 weeks were treated with 5% ribitol drinking water for 3 months and 6 months. All the mice were randomly assigned to either treatment or control groups. And a minimum number of 4 mice were used for each group. No animal was excluded. […] female breeders were given 10% ribitol in drinking water during pregnancy, and pups continued to be treated with 10% ribitol in drinking water until they were euthanized at 19 weeks of age. Untreated age-matched […] and wild-type C57BL/6 mice were used as controls. The animals were terminated at the end of each treatment time point and tissues including heart, diaphragm, TA, quadriceps, liver, spleen and kidney were collected for analyses. Ribitol was purchased from Sigma (A5502). […] The supernatants were removed, transferred to individual wells of 96-well plate and analyzed by LC/MS-MS. […] The metabolites were analyzed using electrospray ionization mass spectrometry operated in positive ion mode, ESI+. Compounds concentration in tissue samples were determined based on standard curves prepared by serial dilutions (200-0.01 μM) of each of the compound in MeOH:ACN (1:1).

[2] = system: FKRP and LARGE transcripts; test: Quantitative real-time PCR of FKRP and LARGE transcripts in muscles of P448L mice; type: in vivo, mouse; conditions: 5% ribitol, 3 months (FIG. 11b); cardiac muscle, limb muscle, diaphragm
Method: Tissues were collected from heart, diaphragm and tibialis anterior. RNA was extracted using TRIzol (Invitrogen) following the supplied protocol. Final RNA pellet was re-suspended in 20 μl RNAse-nuclease free water. Final RNA concentration was determined using Nanodrop 2000c. One μg of RNA was subsequently converted to cDNA using the High-Capacity RNA-to-cDNA™ Kit (Applied Biosystems) following the supplied protocol. cDNA was then used for quantitative real-time PCR using the mouse FKRP-FAM (Mm00557870_m1) and LARGE-FAM (Mm00521885 ml) taqman assay with primer limited GAPDH-VIC (Mm99999915_g1) as the internal control and TaqMan® Universal Master Mix II, with UNG (Life Technologies). […] Results of FKRP and LARGE transcript were calculated and expressed as 2^-ΔΔCt and compared across tissues and animals.

[3] = system: FKRP P448L mutant mice; test: Muscle function tests (treadmill exhaustion, grip strength) in P448L mice; type: in vivo, mouse
Method: For treadmill exhaustion test, 17 and 30 weeks old mice were placed on the belt of a five-lane-motorized treadmill (LE8700 treadmill, Panlab/Harvard Apparatus, Barcelona, Spain) supplied with shock grids mounted at the back of the treadmill, which delivered a 0.2 mA current to provide motivation for exercise. Initially, the mice were subjected to an acclimation period (time, 5 min; speed, 8 cm/s, and 0° incline). Immediately after acclimation period, the test commenced with speed increases of 2 cm/s every minute until exhaustion. The test was stopped and the time to exhaustion was determined when the mouse remained on the shock grid for 5 s without attempting to re-engage the treadmill. For grip force test, forelimb and hindlimb in peak torque was measured by a grip strength meter (Columbus Instruments). For forelimb force, the animal was held so that only the forelimb paws grasp the specially designed mouse flat mesh assembly, and was pulled back from the tail until the grip was broken. The force transducer recorded the peak force reached when the animal's grip is broken. For hindlimb force, an angled mesh assembly was used. Mice were allowed to rest on the angled mesh assembly, facing away from the meter with its hindlimbs at least one-half of the way down the length of the mesh. The mouse tail was pulled directly toward the meter and parallel to the mesh assembly. During this procedure, the mice resist by grasping the mesh with all four limbs. Pulling toward the meter was continued until the hindlimbs released from the mesh assembly. Five successful hindlimb and forelimb force measurements within 2 minutes were recorded. The average value was used for analysis. Force was presented as values of KGF (kilogram-force) units normalized to bodyweights (gr) as “Units/gr”. The tests were performed 1 week before euthanasia.

[4] = system: FKRP P448L mutant mice; test: Whole body plethysmography (respiratory function) in P448L mice; type: in vivo, mouse
Method: Respiratory functional analysis in conscious, freely moving 18 and 31 weeks old mice were measured using a whole-body plethysmography technique. The plethysmograph apparatus (Emka Technologies, Falls Church, Va.) was connected to a ventilation pump for the purpose of maintaining a constant air flow, a differential pressure transducer, a usbAMP signal amplifier, and a computer running EMKA iox2 software with the respiratory flow analyzer module, which was used to detect pressure changes due to breathing and recording the transducer signal. An initial amount of 20 mL of air was injected and withdrawn via a 20 mL syringe into the chamber for the purpose of calibration. Mice were placed inside the “free moving” plethysmograph chamber and allowed to acclimate for 5 min in order to minimize any effects of stress related changes in ventilation. Resting ventilation was measured for a duration of 15 min after the acclimation period. Body temperatures of all mice were assumed to be 37° C. and to remain constant during the ventilation protocol.

[5] = system: muscular dystrophy caused by FKRP mutations; test: Ribitol/ribose supplementation in animal model of FKRP mutation muscular dystrophy; type: in vivo; conditions: supplement via drinking water
[6] = 10% ribitol from pregnancy, 18 weeks of age

OC[C@@H](O)[C@@H](O)[C@@H](O)CO [ribitol]
Levels of ribitol, ribitol-5P and CDP-ribitol vs untreated P448L ([1]; heart and quadricep): increased levels | CDP-ribitol levels, treated vs untreated ([1]; heart and quadriceps): at least 4 fold | FKRP and LARGE transcript levels, treated vs untreated [2]: No statistically significant difference | Limb muscle function (treadmill exhaustion test) ([3]; 5% ribitol, 3 and 6 months): significant improvement in limb muscle function was not demonstrated | Treadmill running distance and time vs untreated ([3]; 10% ribitol from pregnancy, 17 weeks of age): significantly longer | Grip strength, forelimb force vs untreated [3, 6]: significant improvement | Tidal volume (TV), expiratory volume (EV), minute volume (MV) vs untreated ([4]; 5% ribitol, 3 and 6 months): trend of improvement | Improvement in EV and MV ([4]; 5% ribitol, 6 months): statistically significant | Peak inspiratory flow (PIF) and peak expiratory flow (PEF) ([4]; 5% ribitol, 6 months): Improvement was also observed | Expired volume (EV), relaxation time (RT), enhanced pause (Penh) [4, 6]: improvement | Minute volume (MV) and end-expiratory pause (EEP) vs untreated [4, 6]: reaching significant difference | Disease pathology of muscular dystrophy caused by FKRP mutations [5]: diminish disease pathology
